Test results taken from ChEMBL document CHEMBL1144455, “A small molecule-kinase interaction map for clinical kinase inhibitors” (Nat Biotechnol, 2005).

Tests used:
[1] = target: Serine/threonine-protein kinase PAK 4 (Homo sapiens, UniProt O96013)
[2] = target: Mitogen-activated protein kinase kinase kinase 4 (Homo sapiens, UniProt Q9Y6R4)
[3] = target: Mitogen-activated protein kinase kinase kinase kinase 5 (Homo sapiens, UniProt Q9Y4K4)
[4] = target: Serine/threonine-protein kinase Nek6 (Homo sapiens, UniProt Q9HC98)
[5] = target: T1, Serine/threonine-protein kinase Nek2 (Homo sapiens, UniProt P51955)
T1 sequence (P51955 whole entry): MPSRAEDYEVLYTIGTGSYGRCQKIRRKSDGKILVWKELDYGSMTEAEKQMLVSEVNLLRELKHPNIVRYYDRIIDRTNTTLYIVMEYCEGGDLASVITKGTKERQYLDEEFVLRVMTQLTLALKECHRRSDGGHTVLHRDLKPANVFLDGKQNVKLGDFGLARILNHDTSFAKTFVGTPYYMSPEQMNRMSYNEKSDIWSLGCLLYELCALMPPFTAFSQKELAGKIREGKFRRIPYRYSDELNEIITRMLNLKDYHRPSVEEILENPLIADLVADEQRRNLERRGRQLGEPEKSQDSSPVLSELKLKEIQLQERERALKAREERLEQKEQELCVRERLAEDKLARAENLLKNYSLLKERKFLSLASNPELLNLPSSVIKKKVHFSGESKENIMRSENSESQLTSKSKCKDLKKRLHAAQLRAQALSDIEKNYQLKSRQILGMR

[6] = target: T2, Serine/threonine-protein kinase 17B (Homo sapiens, UniProt O94768)
T2 sequence (O94768 whole entry): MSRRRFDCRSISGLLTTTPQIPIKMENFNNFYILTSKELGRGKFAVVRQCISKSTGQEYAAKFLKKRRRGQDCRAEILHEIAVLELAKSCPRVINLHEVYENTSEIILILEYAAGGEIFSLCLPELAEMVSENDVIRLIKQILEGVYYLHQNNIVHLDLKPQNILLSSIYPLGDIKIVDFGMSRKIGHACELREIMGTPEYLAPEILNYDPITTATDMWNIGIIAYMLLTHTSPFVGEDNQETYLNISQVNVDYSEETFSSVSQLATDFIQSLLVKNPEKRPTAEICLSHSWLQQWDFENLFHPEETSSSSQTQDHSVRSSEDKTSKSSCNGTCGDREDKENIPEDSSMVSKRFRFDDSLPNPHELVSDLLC

[7] = target: T3, Serine/threonine-protein kinase PLK4 (Homo sapiens, UniProt O00444)
T3 sequence (O00444 whole entry): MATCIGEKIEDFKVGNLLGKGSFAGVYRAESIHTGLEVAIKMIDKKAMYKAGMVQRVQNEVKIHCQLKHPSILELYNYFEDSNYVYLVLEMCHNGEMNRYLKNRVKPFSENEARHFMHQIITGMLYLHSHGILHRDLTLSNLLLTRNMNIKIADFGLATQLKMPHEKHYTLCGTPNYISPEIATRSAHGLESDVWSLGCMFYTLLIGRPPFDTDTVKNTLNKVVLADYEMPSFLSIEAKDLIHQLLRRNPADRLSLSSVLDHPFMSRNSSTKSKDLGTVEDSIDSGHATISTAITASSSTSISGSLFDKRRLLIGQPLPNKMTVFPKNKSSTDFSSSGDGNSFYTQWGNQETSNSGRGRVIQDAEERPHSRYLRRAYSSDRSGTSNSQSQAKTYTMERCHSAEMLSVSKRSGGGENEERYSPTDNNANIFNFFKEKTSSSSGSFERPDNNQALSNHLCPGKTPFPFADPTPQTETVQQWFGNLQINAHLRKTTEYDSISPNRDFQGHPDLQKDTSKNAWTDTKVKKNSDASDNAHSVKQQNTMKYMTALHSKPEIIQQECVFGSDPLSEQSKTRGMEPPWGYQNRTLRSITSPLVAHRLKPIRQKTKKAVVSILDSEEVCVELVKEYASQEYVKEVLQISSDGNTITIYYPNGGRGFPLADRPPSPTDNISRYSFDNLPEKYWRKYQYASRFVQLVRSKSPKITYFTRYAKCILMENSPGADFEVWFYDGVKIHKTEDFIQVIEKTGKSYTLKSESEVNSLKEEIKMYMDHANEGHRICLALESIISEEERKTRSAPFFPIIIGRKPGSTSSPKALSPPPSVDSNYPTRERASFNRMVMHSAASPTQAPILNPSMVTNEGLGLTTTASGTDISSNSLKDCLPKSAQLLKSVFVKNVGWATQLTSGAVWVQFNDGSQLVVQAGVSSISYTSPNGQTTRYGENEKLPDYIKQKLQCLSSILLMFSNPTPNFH

Angiopoietin-1 receptor = Angiopoietin-1 receptor (Homo sapiens, UniProt Q02763)
[8] = target: High affinity nerve growth factor receptor (Homo sapiens, UniProt P04629)
[9] = target: Protein kinase C alpha type (Homo sapiens, UniProt P17252)
[10] = target: Death-associated protein kinase 2 (Homo sapiens, UniProt Q9UIK4)
[11] = target: Fibroblast growth factor receptor 2 (Homo sapiens, UniProt P21802)
[12] = target: Platelet-derived growth factor receptor beta (Homo sapiens, UniProt P09619)
[13] = target: Receptor tyrosine-protein kinase erbB-2 (Homo sapiens, UniProt P04626)
[14] = target: T4, Membrane-associated tyrosine- and threonine-specific cdc2-inhibitory kinase (Homo sapiens, UniProt Q99640)
T4 sequence (Q99640 whole entry): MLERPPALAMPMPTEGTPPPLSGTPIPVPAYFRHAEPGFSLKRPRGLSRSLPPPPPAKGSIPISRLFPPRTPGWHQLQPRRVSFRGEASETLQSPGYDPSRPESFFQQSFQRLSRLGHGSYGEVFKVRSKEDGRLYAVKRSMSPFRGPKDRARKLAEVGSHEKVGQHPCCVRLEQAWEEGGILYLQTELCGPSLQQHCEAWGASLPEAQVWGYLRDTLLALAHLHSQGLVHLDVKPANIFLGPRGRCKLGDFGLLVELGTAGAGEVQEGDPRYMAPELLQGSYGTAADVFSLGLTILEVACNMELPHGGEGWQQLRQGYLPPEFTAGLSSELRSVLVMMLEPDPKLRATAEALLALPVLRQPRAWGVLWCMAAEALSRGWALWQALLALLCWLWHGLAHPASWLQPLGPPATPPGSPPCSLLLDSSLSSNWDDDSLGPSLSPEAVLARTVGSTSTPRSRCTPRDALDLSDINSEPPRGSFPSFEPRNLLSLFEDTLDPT

Measured: Kd

Sequence of Mitogen-activated protein kinase kinase kinase kinase 5 (Q9Y4K4 whole entry): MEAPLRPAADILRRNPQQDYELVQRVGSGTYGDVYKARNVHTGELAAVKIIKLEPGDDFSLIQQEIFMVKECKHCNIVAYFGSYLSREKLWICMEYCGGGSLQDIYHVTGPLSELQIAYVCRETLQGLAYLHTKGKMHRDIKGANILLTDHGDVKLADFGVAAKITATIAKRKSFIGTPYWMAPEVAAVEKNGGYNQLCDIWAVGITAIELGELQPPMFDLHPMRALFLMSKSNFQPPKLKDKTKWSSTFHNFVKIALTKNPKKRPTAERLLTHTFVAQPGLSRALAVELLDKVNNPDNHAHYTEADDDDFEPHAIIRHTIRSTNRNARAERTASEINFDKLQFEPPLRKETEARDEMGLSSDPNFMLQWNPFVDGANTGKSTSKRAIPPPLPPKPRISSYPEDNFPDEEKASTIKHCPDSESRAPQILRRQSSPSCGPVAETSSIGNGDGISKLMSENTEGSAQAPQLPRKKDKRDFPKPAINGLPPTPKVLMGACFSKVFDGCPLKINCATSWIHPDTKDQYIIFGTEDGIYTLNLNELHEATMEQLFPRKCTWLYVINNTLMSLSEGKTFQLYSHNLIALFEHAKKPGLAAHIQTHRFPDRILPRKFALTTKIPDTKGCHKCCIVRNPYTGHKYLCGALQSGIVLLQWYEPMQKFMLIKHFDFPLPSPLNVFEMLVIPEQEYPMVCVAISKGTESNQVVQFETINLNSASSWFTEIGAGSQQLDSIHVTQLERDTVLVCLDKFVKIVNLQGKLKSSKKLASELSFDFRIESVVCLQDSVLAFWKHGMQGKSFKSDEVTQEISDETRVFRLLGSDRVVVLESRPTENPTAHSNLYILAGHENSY
Sequence of Serine/threonine-protein kinase PAK 4 (O96013 whole entry): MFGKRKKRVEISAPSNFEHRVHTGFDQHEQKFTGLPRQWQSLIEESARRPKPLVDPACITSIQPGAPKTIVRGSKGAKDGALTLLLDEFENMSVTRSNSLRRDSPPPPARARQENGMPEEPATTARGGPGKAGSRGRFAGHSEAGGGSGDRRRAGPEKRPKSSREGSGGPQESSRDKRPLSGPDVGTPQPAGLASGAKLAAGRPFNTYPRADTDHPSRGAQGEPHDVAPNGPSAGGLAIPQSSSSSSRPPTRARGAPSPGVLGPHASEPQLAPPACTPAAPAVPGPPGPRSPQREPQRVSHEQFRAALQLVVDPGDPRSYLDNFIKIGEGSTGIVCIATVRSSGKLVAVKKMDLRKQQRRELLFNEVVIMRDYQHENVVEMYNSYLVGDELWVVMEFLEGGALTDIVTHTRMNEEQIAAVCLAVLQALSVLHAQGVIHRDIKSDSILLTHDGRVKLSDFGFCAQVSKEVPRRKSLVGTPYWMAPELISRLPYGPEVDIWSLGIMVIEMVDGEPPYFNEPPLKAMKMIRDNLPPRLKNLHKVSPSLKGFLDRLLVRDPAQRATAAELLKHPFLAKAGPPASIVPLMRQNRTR
Sequence of High affinity nerve growth factor receptor (P04629 whole entry): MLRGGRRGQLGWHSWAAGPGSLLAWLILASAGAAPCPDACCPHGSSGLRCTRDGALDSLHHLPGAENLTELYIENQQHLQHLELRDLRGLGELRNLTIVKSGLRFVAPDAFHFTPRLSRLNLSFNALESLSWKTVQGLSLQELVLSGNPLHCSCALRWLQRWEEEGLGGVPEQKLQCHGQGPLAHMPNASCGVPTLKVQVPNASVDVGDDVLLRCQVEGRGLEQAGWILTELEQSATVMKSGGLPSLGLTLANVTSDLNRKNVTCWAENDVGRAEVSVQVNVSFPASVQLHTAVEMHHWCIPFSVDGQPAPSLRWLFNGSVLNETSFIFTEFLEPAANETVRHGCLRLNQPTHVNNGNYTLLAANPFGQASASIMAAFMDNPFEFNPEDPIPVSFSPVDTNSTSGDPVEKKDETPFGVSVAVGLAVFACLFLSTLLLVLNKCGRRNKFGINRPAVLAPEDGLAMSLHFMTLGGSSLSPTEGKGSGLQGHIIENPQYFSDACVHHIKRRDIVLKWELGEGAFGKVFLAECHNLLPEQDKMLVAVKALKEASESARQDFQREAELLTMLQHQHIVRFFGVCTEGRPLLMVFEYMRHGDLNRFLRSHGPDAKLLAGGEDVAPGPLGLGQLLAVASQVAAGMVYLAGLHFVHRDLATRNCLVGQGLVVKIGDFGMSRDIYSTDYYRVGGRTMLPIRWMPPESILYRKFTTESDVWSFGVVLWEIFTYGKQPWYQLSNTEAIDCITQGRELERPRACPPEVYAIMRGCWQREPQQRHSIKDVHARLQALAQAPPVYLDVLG
Sequence of Death-associated protein kinase 2 (Q9UIK4 whole entry): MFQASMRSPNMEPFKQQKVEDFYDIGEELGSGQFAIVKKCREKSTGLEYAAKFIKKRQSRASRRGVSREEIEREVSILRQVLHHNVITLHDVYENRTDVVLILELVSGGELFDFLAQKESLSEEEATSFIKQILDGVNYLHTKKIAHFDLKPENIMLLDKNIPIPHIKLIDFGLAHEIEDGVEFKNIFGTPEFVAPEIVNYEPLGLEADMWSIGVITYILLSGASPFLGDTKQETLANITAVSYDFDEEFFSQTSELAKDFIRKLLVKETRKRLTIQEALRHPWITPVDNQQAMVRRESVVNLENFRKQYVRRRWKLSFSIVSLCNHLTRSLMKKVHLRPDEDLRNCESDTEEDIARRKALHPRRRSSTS
Sequence of Receptor tyrosine-protein kinase erbB-2 (P04626 whole entry): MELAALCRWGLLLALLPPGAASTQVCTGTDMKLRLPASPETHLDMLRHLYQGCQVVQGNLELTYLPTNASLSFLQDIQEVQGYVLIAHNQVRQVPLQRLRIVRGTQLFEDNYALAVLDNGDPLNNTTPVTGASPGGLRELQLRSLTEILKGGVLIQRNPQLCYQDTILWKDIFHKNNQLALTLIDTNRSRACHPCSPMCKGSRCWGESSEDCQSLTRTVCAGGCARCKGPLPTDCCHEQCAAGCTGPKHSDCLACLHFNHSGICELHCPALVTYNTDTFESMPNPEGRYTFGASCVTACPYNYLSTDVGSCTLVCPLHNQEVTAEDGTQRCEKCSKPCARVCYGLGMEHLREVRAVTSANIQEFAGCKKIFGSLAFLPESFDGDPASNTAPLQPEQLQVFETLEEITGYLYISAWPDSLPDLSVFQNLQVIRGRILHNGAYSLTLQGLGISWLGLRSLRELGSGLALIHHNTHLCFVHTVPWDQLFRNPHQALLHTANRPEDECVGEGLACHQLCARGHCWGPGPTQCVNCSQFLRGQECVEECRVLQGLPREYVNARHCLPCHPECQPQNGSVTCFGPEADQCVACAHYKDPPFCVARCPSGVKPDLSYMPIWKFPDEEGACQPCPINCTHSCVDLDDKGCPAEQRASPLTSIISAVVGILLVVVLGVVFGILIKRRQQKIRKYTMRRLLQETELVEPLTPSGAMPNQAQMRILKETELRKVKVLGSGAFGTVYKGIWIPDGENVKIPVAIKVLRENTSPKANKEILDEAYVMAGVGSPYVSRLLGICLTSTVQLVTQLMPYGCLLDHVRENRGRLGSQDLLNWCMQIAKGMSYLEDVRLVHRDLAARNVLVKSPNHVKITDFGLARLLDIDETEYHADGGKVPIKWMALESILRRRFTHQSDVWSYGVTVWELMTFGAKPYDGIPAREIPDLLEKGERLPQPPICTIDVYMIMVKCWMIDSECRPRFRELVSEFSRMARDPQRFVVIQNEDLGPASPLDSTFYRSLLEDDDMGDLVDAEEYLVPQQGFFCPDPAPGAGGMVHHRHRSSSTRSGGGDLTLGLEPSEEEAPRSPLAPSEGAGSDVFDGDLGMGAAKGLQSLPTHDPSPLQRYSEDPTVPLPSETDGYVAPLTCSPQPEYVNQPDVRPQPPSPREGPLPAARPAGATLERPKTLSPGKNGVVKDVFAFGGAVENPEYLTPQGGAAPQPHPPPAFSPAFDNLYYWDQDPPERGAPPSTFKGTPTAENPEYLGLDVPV
Sequence of Angiopoietin-1 receptor (Q02763 whole entry): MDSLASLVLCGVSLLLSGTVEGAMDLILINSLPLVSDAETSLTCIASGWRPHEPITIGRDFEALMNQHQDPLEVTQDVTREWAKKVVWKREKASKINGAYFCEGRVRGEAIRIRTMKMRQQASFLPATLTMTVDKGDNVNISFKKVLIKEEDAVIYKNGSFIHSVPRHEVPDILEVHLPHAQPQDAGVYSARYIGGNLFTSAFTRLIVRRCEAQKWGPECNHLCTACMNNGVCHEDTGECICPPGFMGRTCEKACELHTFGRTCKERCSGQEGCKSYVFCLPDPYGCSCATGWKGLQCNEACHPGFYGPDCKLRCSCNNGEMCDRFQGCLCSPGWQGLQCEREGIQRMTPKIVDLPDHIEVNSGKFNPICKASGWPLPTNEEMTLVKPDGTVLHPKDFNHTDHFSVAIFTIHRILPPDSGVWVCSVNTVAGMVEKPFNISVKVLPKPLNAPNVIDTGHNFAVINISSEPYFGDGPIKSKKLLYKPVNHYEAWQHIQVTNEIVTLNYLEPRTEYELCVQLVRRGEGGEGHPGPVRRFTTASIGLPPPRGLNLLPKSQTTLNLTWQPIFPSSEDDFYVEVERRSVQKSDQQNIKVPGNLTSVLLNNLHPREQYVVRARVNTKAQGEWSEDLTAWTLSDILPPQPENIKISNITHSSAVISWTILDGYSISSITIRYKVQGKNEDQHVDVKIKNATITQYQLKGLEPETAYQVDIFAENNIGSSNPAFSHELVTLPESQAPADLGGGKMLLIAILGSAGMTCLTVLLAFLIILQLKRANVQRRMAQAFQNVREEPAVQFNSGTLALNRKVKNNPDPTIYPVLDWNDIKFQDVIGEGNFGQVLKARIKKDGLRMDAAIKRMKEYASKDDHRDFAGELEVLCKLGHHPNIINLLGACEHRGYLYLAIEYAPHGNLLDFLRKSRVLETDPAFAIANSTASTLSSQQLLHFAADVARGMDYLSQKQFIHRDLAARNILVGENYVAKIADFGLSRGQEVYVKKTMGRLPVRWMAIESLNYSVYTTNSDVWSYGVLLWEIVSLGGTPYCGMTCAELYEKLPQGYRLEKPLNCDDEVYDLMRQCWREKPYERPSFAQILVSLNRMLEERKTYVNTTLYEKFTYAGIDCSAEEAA

CC[C@H](CO)Nc1nc(NCc2ccccc2)c2ncn(C(C)C)c2n1 [SELICICLIB]
Not Active: all assays above
